Measured values: ChEMBL document CHEMBL4152198, “The development of Bruton's tyrosine kinase (BTK) inhibitors from 2012 to 2017: A mini-review” (Eur J Med Chem, 2018)
Each block holds one compound with its values, some of them ahead of it.

Columns and labels:
[1] = molecular target: T1, Tyrosine-protein kinase JAK3 (Homo sapiens, UniProt P52333); assay: Inhibition of JAK3 (unknown origin)
T1 sequence (P52333 whole entry): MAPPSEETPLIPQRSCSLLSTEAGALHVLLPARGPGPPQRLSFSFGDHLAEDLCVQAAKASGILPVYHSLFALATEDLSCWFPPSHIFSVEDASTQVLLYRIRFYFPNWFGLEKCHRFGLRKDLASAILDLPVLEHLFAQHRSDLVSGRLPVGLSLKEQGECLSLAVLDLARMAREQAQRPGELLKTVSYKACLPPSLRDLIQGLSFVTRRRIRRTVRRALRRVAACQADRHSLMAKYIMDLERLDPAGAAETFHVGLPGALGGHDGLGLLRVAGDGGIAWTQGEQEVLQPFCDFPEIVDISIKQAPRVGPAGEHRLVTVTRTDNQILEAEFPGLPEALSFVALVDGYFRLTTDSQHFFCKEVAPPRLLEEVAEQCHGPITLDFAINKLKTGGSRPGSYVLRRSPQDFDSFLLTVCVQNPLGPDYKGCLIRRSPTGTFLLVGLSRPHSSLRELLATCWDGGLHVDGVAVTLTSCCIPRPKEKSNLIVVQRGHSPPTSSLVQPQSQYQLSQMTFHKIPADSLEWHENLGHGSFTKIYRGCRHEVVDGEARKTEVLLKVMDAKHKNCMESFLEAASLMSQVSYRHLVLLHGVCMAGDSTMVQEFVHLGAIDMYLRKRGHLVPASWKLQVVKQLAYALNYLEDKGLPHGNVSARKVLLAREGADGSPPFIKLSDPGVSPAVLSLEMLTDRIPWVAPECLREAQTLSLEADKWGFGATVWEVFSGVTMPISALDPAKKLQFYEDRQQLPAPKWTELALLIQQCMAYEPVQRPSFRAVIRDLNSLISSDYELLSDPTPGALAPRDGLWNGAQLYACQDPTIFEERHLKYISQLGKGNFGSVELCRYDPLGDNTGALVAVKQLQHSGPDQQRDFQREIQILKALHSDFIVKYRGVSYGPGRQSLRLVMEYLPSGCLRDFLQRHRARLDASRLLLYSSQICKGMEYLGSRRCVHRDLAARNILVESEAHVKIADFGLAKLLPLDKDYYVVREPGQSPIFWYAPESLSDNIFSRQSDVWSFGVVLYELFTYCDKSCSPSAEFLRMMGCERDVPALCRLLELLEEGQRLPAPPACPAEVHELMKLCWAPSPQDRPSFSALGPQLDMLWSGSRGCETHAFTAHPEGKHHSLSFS

[2] = molecular target: T2, Tyrosine-protein kinase BTK (Homo sapiens, UniProt Q06187); assay: Inhibition of BTK (unknown origin)
[3] = molecular target: T2, Tyrosine-protein kinase BTK; assay: Binding affinity to BTK in human Ramos cells assessed as protein occupancy at 20 hrs post compound wash out; format: cell-based
[4] = molecular target: Receptor tyrosine-protein kinase erbB-4 (Homo sapiens, UniProt Q15303); assay: Inhibition of ErbB4/HER4 (unknown origin)
[5] = molecular target: Tyrosine-protein kinase Lyn (Homo sapiens, UniProt P07948); assay: Inhibition of LYN (unknown origin)
[6] = molecular target: T3, Tyrosine-protein kinase Tec (Homo sapiens, UniProt P42680); assay: Inhibition of TEC (unknown origin)
T3 sequence (P42680 whole entry): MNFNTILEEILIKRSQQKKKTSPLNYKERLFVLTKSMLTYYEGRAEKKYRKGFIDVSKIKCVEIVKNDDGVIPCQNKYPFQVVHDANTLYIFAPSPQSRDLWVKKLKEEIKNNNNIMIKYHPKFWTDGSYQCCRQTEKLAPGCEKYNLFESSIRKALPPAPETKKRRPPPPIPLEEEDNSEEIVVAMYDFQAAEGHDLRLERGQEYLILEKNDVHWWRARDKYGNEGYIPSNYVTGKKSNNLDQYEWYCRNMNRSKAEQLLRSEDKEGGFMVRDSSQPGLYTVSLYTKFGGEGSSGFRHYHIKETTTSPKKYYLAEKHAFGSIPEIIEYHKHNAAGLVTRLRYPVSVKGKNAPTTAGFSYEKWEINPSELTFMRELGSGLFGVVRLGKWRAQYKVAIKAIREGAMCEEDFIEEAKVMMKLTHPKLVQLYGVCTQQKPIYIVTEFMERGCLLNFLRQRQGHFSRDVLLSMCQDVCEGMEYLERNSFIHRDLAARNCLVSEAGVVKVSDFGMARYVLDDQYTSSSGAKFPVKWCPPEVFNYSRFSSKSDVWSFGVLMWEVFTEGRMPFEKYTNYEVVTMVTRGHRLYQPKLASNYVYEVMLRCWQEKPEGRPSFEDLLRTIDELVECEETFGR

Homo sapiens [7] = organism: Homo sapiens; assay: Selectivity for BTK (unknown origin) over EGFR (unknown origin)
Homo sapiens [8] = organism: Homo sapiens; assay: Selectivity for BTK (unknown origin) over ITK (unknown origin)
[9] = molecular target: T2, Tyrosine-protein kinase BTK; assay: Binding affinity to BTK (unknown origin) assessed as residence time
Homo sapiens [10] = organism: Homo sapiens; assay: Selectivity for BTK (unknown origin) over JAK3 (unknown origin)
[11] = molecular target: Ribosomal protein S6 kinase alpha-3 (Homo sapiens, UniProt P51812); assay: Binding affinity to RPS6KA3 (unknown origin)
Ribosomal protein S6 kinase alpha-3, sequence (P51812 whole entry): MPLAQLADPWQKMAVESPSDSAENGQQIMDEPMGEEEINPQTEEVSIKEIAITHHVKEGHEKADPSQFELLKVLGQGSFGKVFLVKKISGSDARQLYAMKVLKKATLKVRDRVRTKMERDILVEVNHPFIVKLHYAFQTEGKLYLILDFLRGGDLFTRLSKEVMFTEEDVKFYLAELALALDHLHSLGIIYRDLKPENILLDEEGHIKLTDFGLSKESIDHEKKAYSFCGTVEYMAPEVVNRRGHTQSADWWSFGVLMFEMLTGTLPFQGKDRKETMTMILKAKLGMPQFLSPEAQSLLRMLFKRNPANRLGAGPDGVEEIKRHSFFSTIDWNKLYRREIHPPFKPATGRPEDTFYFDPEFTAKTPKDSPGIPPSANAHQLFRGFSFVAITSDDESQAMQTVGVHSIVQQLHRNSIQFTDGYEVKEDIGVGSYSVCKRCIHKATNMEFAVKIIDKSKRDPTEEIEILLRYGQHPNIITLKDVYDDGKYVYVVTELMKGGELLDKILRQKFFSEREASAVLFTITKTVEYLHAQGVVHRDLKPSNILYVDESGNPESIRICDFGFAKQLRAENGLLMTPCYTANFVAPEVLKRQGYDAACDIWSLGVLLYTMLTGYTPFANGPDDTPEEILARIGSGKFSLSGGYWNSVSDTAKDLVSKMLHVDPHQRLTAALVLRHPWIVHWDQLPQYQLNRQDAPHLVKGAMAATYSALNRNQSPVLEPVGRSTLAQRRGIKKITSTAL

T2 sequence (Q06187 whole entry): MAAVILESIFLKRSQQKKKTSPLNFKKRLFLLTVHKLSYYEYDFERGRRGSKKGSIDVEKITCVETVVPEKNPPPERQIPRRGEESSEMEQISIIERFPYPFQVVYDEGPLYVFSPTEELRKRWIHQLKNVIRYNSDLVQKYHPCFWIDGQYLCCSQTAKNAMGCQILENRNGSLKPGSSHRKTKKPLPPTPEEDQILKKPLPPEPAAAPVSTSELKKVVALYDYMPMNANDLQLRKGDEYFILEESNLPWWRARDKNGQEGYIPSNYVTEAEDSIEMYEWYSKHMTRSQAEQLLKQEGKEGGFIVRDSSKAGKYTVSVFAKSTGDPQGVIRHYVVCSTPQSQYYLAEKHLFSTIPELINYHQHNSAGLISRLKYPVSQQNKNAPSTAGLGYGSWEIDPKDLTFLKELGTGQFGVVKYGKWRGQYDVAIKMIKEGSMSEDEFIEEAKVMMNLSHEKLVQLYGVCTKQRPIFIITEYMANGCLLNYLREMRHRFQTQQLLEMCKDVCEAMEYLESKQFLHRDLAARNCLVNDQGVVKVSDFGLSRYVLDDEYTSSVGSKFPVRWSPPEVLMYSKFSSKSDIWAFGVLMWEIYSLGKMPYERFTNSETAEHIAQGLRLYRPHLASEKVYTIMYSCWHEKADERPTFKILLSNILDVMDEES
Tyrosine-protein kinase Lyn, sequence (P07948 whole entry): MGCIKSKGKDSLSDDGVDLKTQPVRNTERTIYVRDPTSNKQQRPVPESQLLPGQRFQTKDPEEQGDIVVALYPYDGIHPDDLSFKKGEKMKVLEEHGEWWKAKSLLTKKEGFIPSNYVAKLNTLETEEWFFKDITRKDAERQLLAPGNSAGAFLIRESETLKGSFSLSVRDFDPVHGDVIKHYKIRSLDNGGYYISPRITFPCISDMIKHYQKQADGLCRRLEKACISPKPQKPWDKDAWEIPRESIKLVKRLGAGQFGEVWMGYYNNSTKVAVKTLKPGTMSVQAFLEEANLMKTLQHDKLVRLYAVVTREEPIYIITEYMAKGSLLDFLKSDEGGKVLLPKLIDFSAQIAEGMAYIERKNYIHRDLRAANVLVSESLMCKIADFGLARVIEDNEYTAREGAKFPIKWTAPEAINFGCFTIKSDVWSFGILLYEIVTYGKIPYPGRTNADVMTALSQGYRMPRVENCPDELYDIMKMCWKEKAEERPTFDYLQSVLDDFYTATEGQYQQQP
Receptor tyrosine-protein kinase erbB-4, sequence (Q15303 whole entry): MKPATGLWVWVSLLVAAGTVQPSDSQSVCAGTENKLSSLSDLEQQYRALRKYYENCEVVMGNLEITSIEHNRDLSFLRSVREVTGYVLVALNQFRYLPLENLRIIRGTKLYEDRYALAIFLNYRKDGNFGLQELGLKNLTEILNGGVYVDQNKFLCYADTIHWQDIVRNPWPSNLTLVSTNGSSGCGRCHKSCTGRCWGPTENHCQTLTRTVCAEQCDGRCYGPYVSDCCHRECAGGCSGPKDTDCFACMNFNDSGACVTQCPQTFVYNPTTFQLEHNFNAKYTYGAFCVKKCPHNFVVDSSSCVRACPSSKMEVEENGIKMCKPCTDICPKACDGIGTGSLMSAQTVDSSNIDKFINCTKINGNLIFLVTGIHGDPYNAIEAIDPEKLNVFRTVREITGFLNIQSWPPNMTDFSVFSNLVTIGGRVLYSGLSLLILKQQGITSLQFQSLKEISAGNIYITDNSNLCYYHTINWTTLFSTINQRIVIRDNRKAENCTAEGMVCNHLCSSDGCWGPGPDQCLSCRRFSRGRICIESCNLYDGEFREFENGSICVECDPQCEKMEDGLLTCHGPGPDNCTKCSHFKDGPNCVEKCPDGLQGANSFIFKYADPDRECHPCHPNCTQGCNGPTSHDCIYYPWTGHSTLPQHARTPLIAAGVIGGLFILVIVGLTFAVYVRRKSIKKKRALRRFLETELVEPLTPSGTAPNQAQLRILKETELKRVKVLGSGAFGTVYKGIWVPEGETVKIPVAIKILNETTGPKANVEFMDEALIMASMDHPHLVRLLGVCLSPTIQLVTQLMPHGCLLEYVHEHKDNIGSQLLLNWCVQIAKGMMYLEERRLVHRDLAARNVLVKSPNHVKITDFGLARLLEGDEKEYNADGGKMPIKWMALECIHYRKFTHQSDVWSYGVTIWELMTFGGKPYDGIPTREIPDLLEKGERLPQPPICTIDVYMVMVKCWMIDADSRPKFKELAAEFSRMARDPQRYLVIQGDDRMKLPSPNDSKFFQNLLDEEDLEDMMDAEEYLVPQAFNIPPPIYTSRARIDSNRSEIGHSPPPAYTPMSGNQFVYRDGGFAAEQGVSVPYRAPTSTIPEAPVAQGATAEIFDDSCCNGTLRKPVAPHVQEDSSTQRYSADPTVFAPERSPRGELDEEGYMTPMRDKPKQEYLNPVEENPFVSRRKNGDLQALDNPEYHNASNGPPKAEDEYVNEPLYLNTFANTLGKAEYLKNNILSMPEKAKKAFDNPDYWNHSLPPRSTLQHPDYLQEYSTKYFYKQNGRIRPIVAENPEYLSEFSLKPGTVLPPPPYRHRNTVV

IC50 [1]: > 5000 nM | IC50 [2]: 4 nM | Occ [3]: 55%
Compound: CC(C)(C)/C=C(/C#N)C(=O)N1CCC[C@@H](n2nc(-c3ccc(Oc4ccccc4)cc3)c3c(N)ncnc32)C1

IC50 [2]: 2 nM
Compound: Cc1cc2[nH]ncc2cc1-c1cccc2c(N)c(C(N)=O)nnc12

IC50 [4]: 11.3 nM
Compound: CC(C)(/C=C(\C#N)C(=O)N1CCC[C@H](n2nc(-c3ccc(Oc4ccccc4)cc3F)c3c(N)ncnc32)C1)N1CCN(C2COC2)CC1

IC50 [5]: 4400 nM | IC50 [6]: 6.2 nM
Compound: C=CC(=O)Nc1cccc(Nc2nc(Nc3ccc(OCCOC)cc3)ncc2F)c1 [SPEBRUTINIB]

IC50 [2]: 652 nM
Compound: C=CC(=O)Nc1cccc(Oc2nc(Nc3ccc(N4CCN(C)CC4)cc3)nc3ccoc23)c1 [POSELTINIB]

Selectivity ratio (Homo sapiens [7]): > 1000 | Selectivity ratio (Homo sapiens [8]): 60 | TIME [9]: 161 h | Selectivity ratio (Homo sapiens [10]): > 1000 | Kd [11]: 0.54 nM
Compound: CN(C1COC1)C(C)(C)/C=C(\C#N)C(=O)N1CCC[C@H]1Cn1nc(-c2ccc(Oc3ccccc3)cc2F)c2c(N)ncnc21
